ChEMBL document CHEMBL1201862, “PubChem BioAssay data set” (2004)
Each block holds one molecule with its values, some of them ahead of it. The source made the active and inactive calls.

Assays:
[1] = control 3'UTR Renilla luciferase suppression, dose response, counter-screen for Shn3 inhibitor project, cell-based, Clone20-Shn3RL, cherry-picked (AID 624133); assay type: functional
[2] = molecular target: T1, Voltage-gated N-type calcium channel alpha-1B subunit/Amyloid beta A4 precursor protein-binding family A member 1 (Homo sapiens, UniProt Q00975+Q02410); assay type: protein assay
T1 sequence (Q00975 whole entry): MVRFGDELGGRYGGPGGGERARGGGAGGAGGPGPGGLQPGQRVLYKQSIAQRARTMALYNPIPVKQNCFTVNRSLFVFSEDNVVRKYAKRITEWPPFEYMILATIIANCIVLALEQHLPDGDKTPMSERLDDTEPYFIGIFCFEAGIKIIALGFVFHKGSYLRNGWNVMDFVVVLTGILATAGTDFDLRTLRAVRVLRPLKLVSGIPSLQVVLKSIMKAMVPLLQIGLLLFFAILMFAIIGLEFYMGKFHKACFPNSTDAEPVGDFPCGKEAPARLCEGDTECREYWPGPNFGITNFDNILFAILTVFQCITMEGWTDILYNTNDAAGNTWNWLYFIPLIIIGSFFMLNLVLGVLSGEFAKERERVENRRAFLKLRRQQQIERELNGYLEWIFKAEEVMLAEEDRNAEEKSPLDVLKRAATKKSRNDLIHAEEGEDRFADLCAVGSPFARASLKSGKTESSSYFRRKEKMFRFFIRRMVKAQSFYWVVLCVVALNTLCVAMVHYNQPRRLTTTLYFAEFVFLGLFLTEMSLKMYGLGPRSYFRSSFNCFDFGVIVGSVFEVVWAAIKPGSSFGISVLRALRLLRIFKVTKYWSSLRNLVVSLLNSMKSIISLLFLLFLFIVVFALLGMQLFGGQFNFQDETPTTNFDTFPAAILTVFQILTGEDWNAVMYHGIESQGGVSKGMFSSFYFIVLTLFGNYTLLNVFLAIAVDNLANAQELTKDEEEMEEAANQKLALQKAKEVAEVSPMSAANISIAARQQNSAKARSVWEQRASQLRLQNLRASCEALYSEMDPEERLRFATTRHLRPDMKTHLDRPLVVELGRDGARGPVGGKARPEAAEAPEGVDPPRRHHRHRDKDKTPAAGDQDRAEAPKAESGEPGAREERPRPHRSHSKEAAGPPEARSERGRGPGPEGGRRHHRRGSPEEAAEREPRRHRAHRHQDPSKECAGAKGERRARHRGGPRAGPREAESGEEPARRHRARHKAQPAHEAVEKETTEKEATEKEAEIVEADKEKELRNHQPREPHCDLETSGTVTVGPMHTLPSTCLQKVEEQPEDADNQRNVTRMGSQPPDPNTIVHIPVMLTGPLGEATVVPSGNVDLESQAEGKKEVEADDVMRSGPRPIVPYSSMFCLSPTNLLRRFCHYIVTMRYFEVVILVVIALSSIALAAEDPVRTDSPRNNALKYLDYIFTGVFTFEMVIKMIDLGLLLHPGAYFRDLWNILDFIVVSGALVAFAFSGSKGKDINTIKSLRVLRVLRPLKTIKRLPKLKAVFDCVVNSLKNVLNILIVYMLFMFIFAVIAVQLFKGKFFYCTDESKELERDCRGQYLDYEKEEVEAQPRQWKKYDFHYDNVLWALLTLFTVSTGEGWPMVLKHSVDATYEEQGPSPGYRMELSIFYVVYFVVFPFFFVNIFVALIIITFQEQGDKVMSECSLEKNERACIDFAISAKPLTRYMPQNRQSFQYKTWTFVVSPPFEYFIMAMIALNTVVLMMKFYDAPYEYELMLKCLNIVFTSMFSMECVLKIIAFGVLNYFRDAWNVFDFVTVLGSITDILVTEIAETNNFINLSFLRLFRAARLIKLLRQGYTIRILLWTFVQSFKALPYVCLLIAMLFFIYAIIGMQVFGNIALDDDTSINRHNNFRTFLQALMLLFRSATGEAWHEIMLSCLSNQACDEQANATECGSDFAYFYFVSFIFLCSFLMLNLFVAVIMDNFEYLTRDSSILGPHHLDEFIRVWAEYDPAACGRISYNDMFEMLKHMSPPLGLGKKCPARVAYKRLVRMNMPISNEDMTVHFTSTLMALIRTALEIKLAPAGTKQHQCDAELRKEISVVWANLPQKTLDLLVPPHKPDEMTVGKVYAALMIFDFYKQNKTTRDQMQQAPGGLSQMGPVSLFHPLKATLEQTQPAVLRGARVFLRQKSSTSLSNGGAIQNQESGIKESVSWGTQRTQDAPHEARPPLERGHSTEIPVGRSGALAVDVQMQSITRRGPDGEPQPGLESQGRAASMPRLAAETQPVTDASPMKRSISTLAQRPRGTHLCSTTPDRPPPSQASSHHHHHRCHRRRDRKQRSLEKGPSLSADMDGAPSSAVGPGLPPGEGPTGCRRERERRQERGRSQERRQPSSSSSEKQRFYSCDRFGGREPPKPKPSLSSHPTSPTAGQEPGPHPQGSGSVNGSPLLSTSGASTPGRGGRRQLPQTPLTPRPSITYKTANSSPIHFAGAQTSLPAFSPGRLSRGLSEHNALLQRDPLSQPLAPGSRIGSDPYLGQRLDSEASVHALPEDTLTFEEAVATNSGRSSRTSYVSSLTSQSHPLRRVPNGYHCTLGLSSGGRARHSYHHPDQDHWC
T1 sequence (Q02410 whole entry): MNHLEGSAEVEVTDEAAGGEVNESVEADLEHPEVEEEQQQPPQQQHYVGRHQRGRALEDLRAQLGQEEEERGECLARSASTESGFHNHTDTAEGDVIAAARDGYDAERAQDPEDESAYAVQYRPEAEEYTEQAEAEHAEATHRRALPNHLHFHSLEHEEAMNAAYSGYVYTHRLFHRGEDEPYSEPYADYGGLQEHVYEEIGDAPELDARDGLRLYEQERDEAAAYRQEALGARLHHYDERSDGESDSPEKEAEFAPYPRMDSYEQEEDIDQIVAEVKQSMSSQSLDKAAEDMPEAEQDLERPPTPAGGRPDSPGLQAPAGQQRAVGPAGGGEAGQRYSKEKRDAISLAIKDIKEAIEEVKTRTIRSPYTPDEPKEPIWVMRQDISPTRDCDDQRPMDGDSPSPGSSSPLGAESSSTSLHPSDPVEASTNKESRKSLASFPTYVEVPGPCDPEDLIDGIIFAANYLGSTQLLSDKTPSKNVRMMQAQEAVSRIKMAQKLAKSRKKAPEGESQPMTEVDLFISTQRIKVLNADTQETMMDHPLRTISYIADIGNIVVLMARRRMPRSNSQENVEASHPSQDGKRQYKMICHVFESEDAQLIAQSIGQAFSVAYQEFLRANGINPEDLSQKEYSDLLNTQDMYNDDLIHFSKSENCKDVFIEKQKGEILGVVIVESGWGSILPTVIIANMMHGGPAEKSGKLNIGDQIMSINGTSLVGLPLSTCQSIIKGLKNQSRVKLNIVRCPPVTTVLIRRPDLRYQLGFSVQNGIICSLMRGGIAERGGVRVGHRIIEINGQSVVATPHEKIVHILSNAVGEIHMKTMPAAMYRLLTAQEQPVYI

[3] = Shn3 3'UTR reporter inhibitors, dose response, cell-based, Clone20 osteoblasts, firefly luciferase, cherry-picked (AID 624132); assay type: functional;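 also: firefly luciferase luminescence from reporter carrying the Shn3 3'UTR in osteoblasts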
[4] = growth suppression of PTEN-null colon cells, dose response, cell-based, HCT116 PTEN knockout (AID 1047); assay type: functional;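 also: HCT116 colon tumor cells with PTEN knocked out; cells exposed to compound for 60 hours before readout; potency for loss of cell viability measured by luminescence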
[5] = molecular target: T1, Voltage-gated N-type calcium channel alpha-1B subunit/Amyloid beta A4 precursor protein-binding family A member 1; assay type: protein assay; remark: listed apart in the source
[6] = HepG2 cell cytotoxicity, dose response, cytotoxicity control for Shn3 inhibitor project, CellTiter-Glo, cherry-picked (AID 624134); assay type: functional, cell-based
[7] = molecular target: Glucose-6-phosphate 1-dehydrogenase (Homo sapiens, UniProt P11413); experiment: human G6PD enzyme inhibitors, dose response, selectivity assay for P. falciparum G6PD inhibitor project, biochemical, fluorescence (AID 504792); assay type: functional
[8] = molecular target: DNA dC->dU-editing enzyme APOBEC-3G (Homo sapiens, UniProt Q9HC16); experiment: Dose Response confirmation of small molecule APOBEC3G DNA Deaminase Inhibitors via a fluorescence-based single-stranded DNA deaminase assay. [Related pubchem assays (depositor defined):AID493012, AID493028]; assay type: functional
[9] = growth suppression of beta-catenin-knockout colon cells, dose response, cell-based, HCT116, human colon tumor (AID 1045); assay type: functional;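 also: HCT116 colon tumor cells with beta catenin knocked out; cells exposed to compound for 60 hours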
Cytochrome P450 2C9 = Cytochrome P450 2C9 (Homo sapiens, UniProt P11712); details: Potency
Sequence of Cytochrome P450 2C9 (P11712 whole entry): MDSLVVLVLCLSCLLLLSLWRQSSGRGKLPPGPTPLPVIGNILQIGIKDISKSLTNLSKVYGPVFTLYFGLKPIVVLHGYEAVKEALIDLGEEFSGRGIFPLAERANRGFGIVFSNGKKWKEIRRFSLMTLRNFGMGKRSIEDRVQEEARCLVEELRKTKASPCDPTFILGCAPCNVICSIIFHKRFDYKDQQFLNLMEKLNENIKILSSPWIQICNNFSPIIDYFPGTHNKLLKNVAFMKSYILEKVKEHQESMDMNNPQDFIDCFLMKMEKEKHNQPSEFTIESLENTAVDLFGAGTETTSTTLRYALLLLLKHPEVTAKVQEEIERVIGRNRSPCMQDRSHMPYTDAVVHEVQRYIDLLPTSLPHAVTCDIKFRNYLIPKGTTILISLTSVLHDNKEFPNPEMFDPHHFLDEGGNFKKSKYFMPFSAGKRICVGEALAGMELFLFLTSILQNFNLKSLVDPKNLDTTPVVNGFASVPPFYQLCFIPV

Cytochrome P450 3A4 = Cytochrome P450 3A4 (Homo sapiens, UniProt P08684); details: Potency;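 also: confirmatory qHTS run detecting inhibitors and substrates of CYP3A4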
[10] = HEp-2 cell cytotoxicity, dose response, cytotoxicity control for RSV inhibitor project, HTS (AID 2410); assay type: functional; details: human respiratory syncytial virus
[11] = molecular target: T2, Alkaline phosphatase, tissue-nonspecific isozyme (Homo sapiens, UniProt P05186); experiment: human TNAP enzyme inhibitors, SAR follow-up, biochemical, luminescent, dose response (AID 1056)
T2 sequence (P05186 whole entry): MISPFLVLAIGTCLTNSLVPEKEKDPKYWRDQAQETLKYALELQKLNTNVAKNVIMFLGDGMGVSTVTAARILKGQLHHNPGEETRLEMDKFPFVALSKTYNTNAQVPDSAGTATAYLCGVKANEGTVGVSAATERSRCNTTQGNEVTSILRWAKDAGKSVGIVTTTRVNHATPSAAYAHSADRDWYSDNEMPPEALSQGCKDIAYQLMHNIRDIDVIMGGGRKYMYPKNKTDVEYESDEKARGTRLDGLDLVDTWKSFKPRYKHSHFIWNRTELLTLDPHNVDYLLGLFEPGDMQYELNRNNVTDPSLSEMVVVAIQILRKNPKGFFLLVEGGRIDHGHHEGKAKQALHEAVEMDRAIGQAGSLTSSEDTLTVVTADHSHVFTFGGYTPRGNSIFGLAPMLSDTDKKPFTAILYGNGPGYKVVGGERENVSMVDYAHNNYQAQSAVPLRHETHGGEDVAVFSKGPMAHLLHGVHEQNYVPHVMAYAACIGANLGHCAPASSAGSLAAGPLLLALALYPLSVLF

[12] = molecular target: Glyceraldehyde-3-phosphate dehydrogenase (Homo sapiens, UniProt P04406)
Sequence of Glyceraldehyde-3-phosphate dehydrogenase (P04406 whole entry): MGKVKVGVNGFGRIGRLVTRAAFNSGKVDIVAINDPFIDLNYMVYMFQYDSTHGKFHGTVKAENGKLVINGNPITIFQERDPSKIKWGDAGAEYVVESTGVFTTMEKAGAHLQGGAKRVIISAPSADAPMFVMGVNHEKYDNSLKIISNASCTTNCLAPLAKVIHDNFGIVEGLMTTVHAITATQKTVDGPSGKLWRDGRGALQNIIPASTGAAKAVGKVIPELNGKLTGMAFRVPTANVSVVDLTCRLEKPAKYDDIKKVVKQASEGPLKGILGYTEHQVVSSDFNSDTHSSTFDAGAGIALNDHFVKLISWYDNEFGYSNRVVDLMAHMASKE

Beta-galactosidase = Beta-galactosidase (Escherichia coli, UniProt Q8VNN2); experiment: beta-galactosidase enzyme inhibitors and activators, dose response, artefact control for CCR6 antagonist project, biochemical, E. coli enzyme, set 3 (AID 504712); assay type: functional
Sequence of Beta-galactosidase (Q8VNN2 whole entry): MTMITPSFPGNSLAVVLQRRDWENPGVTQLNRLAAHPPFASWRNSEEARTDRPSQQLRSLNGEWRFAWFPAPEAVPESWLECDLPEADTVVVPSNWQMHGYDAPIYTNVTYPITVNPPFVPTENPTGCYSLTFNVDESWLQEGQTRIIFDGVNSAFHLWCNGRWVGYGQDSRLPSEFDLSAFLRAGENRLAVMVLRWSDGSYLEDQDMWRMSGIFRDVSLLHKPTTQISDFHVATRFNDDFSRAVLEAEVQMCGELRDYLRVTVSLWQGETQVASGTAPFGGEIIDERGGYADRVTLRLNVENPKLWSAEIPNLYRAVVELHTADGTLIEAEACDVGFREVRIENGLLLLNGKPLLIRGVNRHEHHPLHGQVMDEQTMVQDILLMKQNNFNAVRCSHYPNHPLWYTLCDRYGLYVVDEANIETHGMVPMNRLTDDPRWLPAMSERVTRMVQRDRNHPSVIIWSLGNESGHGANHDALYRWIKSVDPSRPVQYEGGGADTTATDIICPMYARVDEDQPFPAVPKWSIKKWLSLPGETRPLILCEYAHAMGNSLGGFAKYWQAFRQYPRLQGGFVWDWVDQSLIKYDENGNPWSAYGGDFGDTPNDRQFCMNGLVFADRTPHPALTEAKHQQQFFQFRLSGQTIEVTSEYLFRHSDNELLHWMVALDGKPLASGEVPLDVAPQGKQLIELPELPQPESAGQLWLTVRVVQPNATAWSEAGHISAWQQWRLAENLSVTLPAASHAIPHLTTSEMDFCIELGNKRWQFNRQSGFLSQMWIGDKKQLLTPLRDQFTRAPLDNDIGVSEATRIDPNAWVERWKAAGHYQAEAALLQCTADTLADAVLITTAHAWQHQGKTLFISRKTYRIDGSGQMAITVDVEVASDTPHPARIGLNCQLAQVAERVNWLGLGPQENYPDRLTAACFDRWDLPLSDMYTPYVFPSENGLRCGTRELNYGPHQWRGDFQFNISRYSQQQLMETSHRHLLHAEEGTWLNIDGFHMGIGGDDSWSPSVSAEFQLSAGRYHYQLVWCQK

[13] = molecular target: T3, Ubiquitin-conjugating enzyme E2 N (Homo sapiens, UniProt P61088); assay type: functional
T3 sequence (P61088 whole entry): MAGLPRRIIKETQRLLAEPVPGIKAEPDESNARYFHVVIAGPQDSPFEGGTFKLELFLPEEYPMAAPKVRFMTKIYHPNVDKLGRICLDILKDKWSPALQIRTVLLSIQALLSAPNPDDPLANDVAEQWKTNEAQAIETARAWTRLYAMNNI

[14] = molecular target: T3, Ubiquitin-conjugating enzyme E2 N; assay type: functional; remark: listed apart in the source
Bcl-2-related protein A1 = molecular target: T4, Bcl-2-related protein A1 (Mus musculus, UniProt Q07440); assay type: functional;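 also: confirmatory dose–response counterscreen on Bfl-1, used to check hits from a UBC13 polyubiquitin inhibitor campaign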
T4 sequence (Q07440 whole entry): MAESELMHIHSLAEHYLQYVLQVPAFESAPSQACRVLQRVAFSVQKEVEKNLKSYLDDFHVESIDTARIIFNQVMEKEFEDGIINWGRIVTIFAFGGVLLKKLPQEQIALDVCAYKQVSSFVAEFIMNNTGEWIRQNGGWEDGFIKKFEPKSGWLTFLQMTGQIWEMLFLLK

SMILES: CCOC(=O)C1CCCN(C(=O)Cn2sc3nc(C)cc(C)c3c2=O)C1 (stereo unspecified)
AC50 [1]: 7.5 µM (active)
IC50 [2]: 12.6 µM (active)
AC50 [3]: 12.5 µM (active)
EC50 [4]: 25.9 µM (active)
IC50 [5]: > 50 µM (inactive)
AC50 [6]: > 70 µM (inactive)
IC50 [7]: 47.1 µM (inactive)
IC50 [8]: 6.17 µM (active)
EC50 [9]: 21.6 µM (active)

AC50 (Cytochrome P450 2C9): 1 µM (inconclusive)
AC50 (Cytochrome P450 3A4): 3.98 µM (inconclusive)
SMILES: COC(=O)NC(/C(C(=O)OC)=C(\C)NCc1ccccc1)c1ccc2ccccc2c1 (stereo unspecified)

SMILES: COc1cc(-c2nnc(SCc3c(F)cccc3Cl)o2)cc(OC)c1OC
IC50 (cells): 9.1 µM (active)
CC50 [10]: 29.9 µM (active)

SMILES: Cc1c(CC(=O)N2CCN(C(=O)C3COc4ccccc4O3)CC2)c(=O)oc2cc(O)cc(O)c12 (stereo unspecified)
IC50 (cells): 3.62 µM (active)

IC50 [11]: > 100 µM (inactive)
IC50 [12]: > 100 µM (not active)
SMILES: COc1ccccc1NS(=O)(=O)c1ccc(OC)c2ncccc12

IC50 (Beta-galactosidase): > 66.6 µM (inactive)
SMILES: CCCOc1ccc(CN(CCC#N)C(=S)NC(=O)c2ccccc2)cc1

IC50 [11]: > 100 µM (inactive)
IC50 [12]: > 100 µM (not active)
SMILES: CCOC(=O)c1cc(-c2cccc(C(F)(F)F)c2)n[nH]1

AC50 (Cytochrome P450 2C9): 39.8 µM (inconclusive)
SMILES: NCCC[C@@H](CC(=O)N[C@@H]1CCNC[C@H]1C(=O)N[C@H](CC(=O)N[C@@H](CCC(=O)O)CC(=O)O)Cc1c[nH]c2ccccc12)NC(=O)C[C@H](CO)NC(=O)[C@@H]1CNCC[C@H]1N

IC50 [11]: > 100 µM (inactive)
IC50 [12]: > 100 µM (not active)
SMILES: CCOc1cc(C)ccc1S(=O)(=O)Nc1cccnc1

IC50 [13]: > 20 µM (inactive)
IC50 [14]: 19.8 µM (active)
IC50 (Bcl-2-related protein A1): > 20 µM (inactive)
SMILES: COc1ccc(NS(=O)(=O)c2cc(C(=O)N3CCC3)ccc2C)cc1

IC50 [13]: 7.99 µM (active)
IC50 [14]: 12.1 µM (active)
IC50 (Bcl-2-related protein A1): > 20 µM (inactive)
SMILES: C#CCOCCOCCOCCNc1nc(N2CCN(C(=O)C([C@@H](C)O)n3cc([C@@H](N)CCCCN)nn3)CC2)nc(N2CCN(C(=O)[C@H](CCCN=C(N)N)n3cc(C(N)[C@@H](C)CC)nn3)CC2)n1 (stereo partly specified)

IC50 (Beta-galactosidase): > 66.6 µM (inactive)
SMILES: O=[N+]([O-])c1ccc(N/N=C/c2cccc(O)c2O)cc1

AC50 (Cytochrome P450 2C9): 31.6 µM (inconclusive)
AC50 (Cytochrome P450 3A4): 31.6 µM (inconclusive)
SMILES: O=c1cc(-c2ccccc2O)oc2ccc3ccccc3c12
